From PubChem BioAssay AID1259407 (Chemical Carcinogenesis Research Information System (CCRIS), 2018)
Activity calls are given as the source filed them. How the calls were made is not given here.

Tested on: CCRIS mutagenicity, Ames/micronucleus/aberration tests
Assay: CCRIS mutagenicity studies
[1] = Test System: AMES SALMONELLA TYPHIMURIUM, Strain/Indicator: TA97, Metabolic Activation: NONE, Method: PREINCUBATION
[2] = Test System: AMES SALMONELLA TYPHIMURIUM, Strain/Indicator: TA98, Metabolic Activation: NONE, Method: PREINCUBATION
[3] = Test System: AMES SALMONELLA TYPHIMURIUM, Strain/Indicator: TA100, Metabolic Activation: NONE, Method: PREINCUBATION
[4] = Test System: AMES SALMONELLA TYPHIMURIUM, Strain/Indicator: TA1535, Metabolic Activation: NONE, Method: PREINCUBATION

With `N#C/C(N)=C(/N)C#N` the mutagenic call (Test System: AMES SALMONELLA TYPHIMURIUM, Strain/Indicator: TA97, Metabolic Activation: HAMSTER, LIVER, S-9, AROCLOR 1254 (10%), Method: PREINCUBATION) was “inactive; negative”, the mutagenic call (Test System: AMES SALMONELLA TYPHIMURIUM, Strain/Indicator: TA97, Metabolic Activation: HAMSTER, LIVER, S-9, AROCLOR 1254 (30%), Method: PREINCUBATION) was “inactive; negative” and the mutagenic call [1] was “inactive; negative”. For the same molecule, the mutagenic call (Test System: AMES SALMONELLA TYPHIMURIUM, Strain/Indicator: TA97, Metabolic Activation: RAT, LIVER, S-9, AROCLOR 1254 (10%), Method: PREINCUBATION) was “inactive; negative”, the mutagenic call (Test System: AMES SALMONELLA TYPHIMURIUM, Strain/Indicator: TA97, Metabolic Activation: RAT, LIVER, S-9, AROCLOR 1254 (30%), Method: PREINCUBATION) was “inactive; negative” and the mutagenic call (Test System: AMES SALMONELLA TYPHIMURIUM, Strain/Indicator: TA98, Metabolic Activation: HAMSTER, LIVER, S-9, AROCLOR 1254 (10%), Method: PREINCUBATION) was “inactive; negative”. The mutagenic call (Test System: AMES SALMONELLA TYPHIMURIUM, Strain/Indicator: TA98, Metabolic Activation: HAMSTER, LIVER, S-9, AROCLOR 1254 (30%), Method: PREINCUBATION) was “inactive; negative”, the mutagenic call [2] was “inactive; negative” and the mutagenic call (Test System: AMES SALMONELLA TYPHIMURIUM, Strain/Indicator: TA98, Metabolic Activation: RAT, LIVER, S-9, AROCLOR 1254 (10%), Method: PREINCUBATION) was “inactive; negative”. For the same molecule, the mutagenic call (Test System: AMES SALMONELLA TYPHIMURIUM, Strain/Indicator: TA98, Metabolic Activation: RAT, LIVER, S-9, AROCLOR 1254 (30%), Method: PREINCUBATION) was “inactive; negative”, the mutagenic call (Test System: AMES SALMONELLA TYPHIMURIUM, Strain/Indicator: TA100, Metabolic Activation: HAMSTER, LIVER, S-9, AROCLOR 1254 (10%), Method: PREINCUBATION) was “inactive; negative” and the mutagenic call (Test System: AMES SALMONELLA TYPHIMURIUM, Strain/Indicator: TA100, Metabolic Activation: HAMSTER, LIVER, S-9, AROCLOR 1254 (30%), Method: PREINCUBATION) was “inactive; negative”. The mutagenic call [3] was “inactive; negative”, the mutagenic call (Test System: AMES SALMONELLA TYPHIMURIUM, Strain/Indicator: TA100, Metabolic Activation: RAT, LIVER, S-9, AROCLOR 1254 (10%), Method: PREINCUBATION) was “inactive; negative” and the mutagenic call (Test System: AMES SALMONELLA TYPHIMURIUM, Strain/Indicator: TA100, Metabolic Activation: RAT, LIVER, S-9, AROCLOR 1254 (30%), Method: PREINCUBATION) was “inactive; negative”. For the same molecule, the mutagenic call (Test System: AMES SALMONELLA TYPHIMURIUM, Strain/Indicator: TA1535, Metabolic Activation: HAMSTER, LIVER, S-9, AROCLOR 1254 (10%), Method: PREINCUBATION) was “inactive; negative”, the mutagenic call (Test System: AMES SALMONELLA TYPHIMURIUM, Strain/Indicator: TA1535, Metabolic Activation: HAMSTER, LIVER, S-9, AROCLOR 1254 (30%), Method: PREINCUBATION) was “inactive; negative” and the mutagenic call [4] was “inactive; negative”. The mutagenic call (Test System: AMES SALMONELLA TYPHIMURIUM, Strain/Indicator: TA1535, Metabolic Activation: RAT, LIVER, S-9, AROCLOR 1254 (10%), Method: PREINCUBATION) was “inactive; negative”, the mutagenic call (Test System: AMES SALMONELLA TYPHIMURIUM, Strain/Indicator: TA1535, Metabolic Activation: RAT, LIVER, S-9, AROCLOR 1254 (30%), Method: PREINCUBATION) was “inactive; negative” and the mutagenic call (Test System: MOUSE LYMPHOMA, Strain/Indicator: L5178Y (TK+/TK-), Metabolic Activation: NONE, Method: SUSPENSION/PLATE) was “active; positive. reevaluation of results: positive”. The mutagenic call (Test System: MOUSE LYMPHOMA, Strain/Indicator: L5178Y (TK+/TK-), Metabolic Activation: RAT, LIVER, S-9, AROCLOR 1254, Method: SUSPENSION/PLATE) was “active; positive. reevaluation of results: positive”.

For `Cc1c2cccc(C)c2nc2c1ccc1ccccc12`, the mutagenic call (Test System: AMES SALMONELLA TYPHIMURIUM, Strain/Indicator: TA97A, Metabolic Activation: NONE, Method: PREINCUBATION) was “inactive; negative”, the mutagenic call [2] was “active; positive” and the mutagenic call [3] was “inactive; negative”. For the same molecule, the mutagenic call (Test System: AMES SALMONELLA TYPHIMURIUM, Strain/Indicator: TA102, Metabolic Activation: NONE, Method: PREINCUBATION) was “active; positive”.

With `CC(=O)Nc1cccc(O)c1` the mutagenic call (Test System: AMES SALMONELLA TYPHIMURIUM, Strain/Indicator: TA97, Metabolic Activation: HAMSTER, LIVER, S-9, AROCLOR 1254 (10 OR 30%), Method: PREINCUBATION) was “inactive; negative”, the mutagenic call [1] was “inactive; negative” and the mutagenic call (Test System: AMES SALMONELLA TYPHIMURIUM, Strain/Indicator: TA97, Metabolic Activation: RAT, LIVER, S-9, AROCLOR 1254 (10 OR 30%), Method: PREINCUBATION) was “inactive; negative”. The mutagenic call (Test System: AMES SALMONELLA TYPHIMURIUM, Strain/Indicator: TA98, Metabolic Activation: HAMSTER, LIVER, S-9, AROCLOR 1254 (10 OR 30%), Method: PREINCUBATION) was “inactive; negative”, the mutagenic call [2] was “inactive; negative” and the mutagenic call (Test System: AMES SALMONELLA TYPHIMURIUM, Strain/Indicator: TA98, Metabolic Activation: RAT, LIVER, S-9, AROCLOR 1254 (10 OR 30%), Method: PREINCUBATION) was “inactive; negative”. The mutagenic call (Test System: AMES SALMONELLA TYPHIMURIUM, Strain/Indicator: TA100, Metabolic Activation: HAMSTER, LIVER, S-9, AROCLOR 1254 (10 OR 30%), Method: PREINCUBATION) was “inactive; negative”, the mutagenic call [3] was “inactive; negative” and the mutagenic call (Test System: AMES SALMONELLA TYPHIMURIUM, Strain/Indicator: TA100, Metabolic Activation: RAT, LIVER, S-9, AROCLOR 1254 (10 OR 30%), Method: PREINCUBATION) was “inactive; negative”. For the same molecule, the mutagenic call (Test System: AMES SALMONELLA TYPHIMURIUM, Strain/Indicator: TA1535, Metabolic Activation: HAMSTER, LIVER, S-9, AROCLOR 1254 (10 OR 30%), Method: PREINCUBATION) was “inactive; negative”, the mutagenic call [4] was “inactive; negative” and the mutagenic call (Test System: AMES SALMONELLA TYPHIMURIUM, Strain/Indicator: TA1535, Metabolic Activation: RAT, LIVER, S-9, AROCLOR 1254 (10 OR 30%), Method: PREINCUBATION) was “inactive; negative”.

With `O=C1OCCN1N=Cc1ccc([N+](=O)[O-])o1` the mutagenic call (End Point: In vivo micronucleus, Test System: Bone marrow polychromatic erythrocytes, Species: Rat, Strain/Sex: Sprague-Dawley/Female, Route: Oral) was “inactive; positive (p</=0.05 for mononuclei; p</=0.01 for binuclei for furazolidone alone;”, the mutagenic call (Test System: AMES SALMONELLA TYPHIMURIUM, Strain/Indicator: TA98(1,8-DNP6), Metabolic Activation: NONE, Method: STANDARD PLATE) was “active; positive” and the mutagenic call (Test System: AMES SALMONELLA TYPHIMURIUM, Strain/Indicator: TA98(1,8-DNP6), Metabolic Activation: RAT, LIVER, S-9, 3-METHYLCHOLANTHRENE, Method: STANDARD PLATE) was “active; positive”. For the same molecule, the mutagenic call (Test System: AMES SALMONELLA TYPHIMURIUM, Strain/Indicator: TA98(NR), Metabolic Activation: NONE, Method: STANDARD PLATE) was “active; positive”, the mutagenic call (Test System: AMES SALMONELLA TYPHIMURIUM, Strain/Indicator: TA98(NR), Metabolic Activation: RAT, LIVER, S-9, 3-METHYLCHOLANTHRENE, Method: STANDARD PLATE) was “active; positive” and the mutagenic call (Test System: AMES SALMONELLA TYPHIMURIUM, Strain/Indicator: TA98, Metabolic Activation: NONE) was “active; positive”. For the same molecule, the mutagenic call (Test System: AMES SALMONELLA TYPHIMURIUM, Strain/Indicator: TA98, Metabolic Activation: NONE, Method: STANDARD PLATE) was “active; positive”, the mutagenic call (Test System: AMES SALMONELLA TYPHIMURIUM, Strain/Indicator: TA98, Metabolic Activation: RAT, LIVER, S-9, 3-METHYLCHOLANTHRENE, Method: STANDARD PLATE) was “active; positive” and the mutagenic call (Test System: AMES SALMONELLA TYPHIMURIUM, Strain/Indicator: TA98, Metabolic Activation: S-9) was “active; positive”. The mutagenic call (Test System: AMES SALMONELLA TYPHIMURIUM, Strain/Indicator: TA100, Metabolic Activation: NONE) was “active; positive”, the mutagenic call (Test System: AMES SALMONELLA TYPHIMURIUM, Strain/Indicator: TA100, Metabolic Activation: S-9) was “active; positive” and the mutagenic call (Test System: CHINESE HAMSTER OVARY, Strain/Indicator: CHO-AS52, Metabolic Activation: NONE) was “inactive; negative”. For the same molecule, the mutagenic call (Test System: CHINESE HAMSTER OVARY, Strain/Indicator: CHO-AS52, Metabolic Activation: RAT, LIVER, S-9, 3-METHYLCHOLANTHRENE) was “inactive; negative”, the mutagenic call (Test System: CHINESE HAMSTER OVARY, Strain/Indicator: CHO-K1-BH4, Metabolic Activation: NONE) was “active; positive” and the mutagenic call (Test System: CHINESE HAMSTER OVARY, Strain/Indicator: CHO-K1-BH4, Metabolic Activation: RAT, LIVER, S-9, 3-METHYLCHOLANTHRENE) was “active; positive”. The mutagenic call (Test System: CHINESE HAMSTER OVARY, Strain/Indicator: CHO-UV5, Metabolic Activation: NONE) was “active; positive”, the mutagenic call (Test System: CHINESE HAMSTER OVARY, Strain/Indicator: CHO-UV5, Metabolic Activation: RAT, LIVER, S-9, 3-METHYLCHOLANTHRENE) was “active; positive” and the mutagenic call (Test System: E. COLI, Strain/Indicator: TC3960, Metabolic Activation: NONE, Method: PREINCUBATION) was “active; positive”. For the same molecule, the mutagenic call (Test System: E. COLI, Strain/Indicator: WP2, Metabolic Activation: NONE, Method: SPOT) was “active; positive” and the mutagenic call (Test System: E. COLI, Strain/Indicator: WP2 UVRA, Metabolic Activation: NONE, Method: SPOT) was “active; positive”.
